{
  "source": "patent US11504394B2",
  "about": "“Targeted ionophore-based metal delivery” (The Regents of the University of California, priority 2018, dated 2022)",
  "key": {"[1]": {"assay": "Log P, shake-flask octanol-water partition", "assay_type": "physicochemical", "conditions": "n-octanol / PBS (pH=7.4), error = standard deviation", "protocol": "Log P measurements were performed with The shake-flask method based on compound partitioning between n-octanol and PBS (pH=7.4) layers. Octanol (saturated with PBS) and PBS (saturated with octanol) was obtained by vigorous mixing for one hour followed by layer separation in a separatory funnel over 24 hours. For Gal-Cu(gtsm): 500 μL of standard solutions were made with 100, 50, 20, 10, and 5 μM of Gal-Cu(gtsm) dissolved in PBS-saturated octanol. 50 mM stock solution in DMSO was diluted to 100 μM final concentration with 490/10, 480/20, and 460/40 μL of saturated octanol/PBS. For Cu(gtsm): 500 μL of standard solutions were made with 100, 50, 20, 10, and 5 μM of […]. 50 mM stock solution in DMSO was diluted to 100 μM final concentration with 10/490, […], and 50/450 μL of saturated octanol/PBS. All standards and samples were vortexed vigorously in 1.7 mL microcentrifuge tubes for 60 seconds, then spun down at 12,000 g for 2 mins in a microcentrifuge. 200 μL of each standard and sample were added to a clear 96-well plate, and the blank-subtracted absorbance at 470 nm was read in a Synergy M2 plate reader. All standards and samples were measured in duplicate. Log P values were calculated from the subsequent partition coefficients and averaged across the three partition conditions to obtain the final log P value. […]"}, "HepG2 cells [2]": {"test_system": "HepG2 cells", "assay": "Confocal imaging with copper sensing CF4 fluorescent probe", "assay_type": "cell-based", "conditions": "HepG2, 100 μM Gal-Cu(gtsm) or 2 μM Cu(gtsm), 3 hours", "protocol": "Confocal fluorescence images were acquired with a Zeiss LSM710 laser-scanning microscope with a 20× objective lens. Excitation at 543 nm for CF4 was carried out with appropriate lasers, and emission was acquired from 550 to 650 nm. HepG2 cells were plated between 50-80% confluency in 8-well glass chamber slides with gelatin coating. Cells were incubated with either vehicle, Cu(gtsm), or Gal-Cu(gtsm) for 3 hours in low glucose DMEM. The media was then aspirated and replaced with CF4 or Ctrl-CF4-S2 (2 μM freshly diluted from a 1 mM stock solution) in DPBS with calcium and magnesium, then incubated at 37° C. for 30 minutes. The buffer was then replaced with fresh DPBS (+Ca, +Mg) for imaging. Image analysis and quantification was performed using ImageJ (National Institutes of Health). Mean fluorescence intensity was analyzed with a minimum threshold of 20 pixels and maximum threshold of 255 pixels."}, "HepG2 cells [3]": {"test_system": "HepG2 cells", "assay": "Cell viability, propidium iodide staining, HepG2", "assay_type": "cell-based", "conditions": "500 μM dose, HepG2, three hours", "protocol": "Flow cytometry experiments were performed with BD LSR Fortessa Cell Analyzer in the College of Chemistry at UC Berkeley. Gains were set to include live cells based on viability experiments using propidium iodide, with dead cells via 0.1% saponin treatment as a negative control. The standard PE-A (570 nm longpass, 586/15 nm bandpass) was used. For each biological replicate, three technical replicates of 5,000 (HepG2) or 10,000 cells (HEK 293T) were counted. Flow cytometry data was processed using FlowJo (FlowJo, LLC).\nHEK 293T cells were plated in 6-well plates at 60-80% confluency. After ionophore treatment at the given concentration for three hours, cells were washed with DMEM and incubated with 3 μM propidium iodide in PBS for 15 minutes, then rinsed in PBS. HEK 293T cells were mechanically removed via pipetting off the plate with 1 mL PBS and filtered through a 35 μm nylon mesh into 5 mL culture tubes for analysis. HepG2 cells were plated in 12-well plates at 60-80% confluency. […]"}, "[4]": {"test_system": "alanine transaminase (ALT) activity", "assay": "Serum alanine transaminase (ALT) assay", "assay_type": "in vivo, mice", "conditions": "6 hours, 0.75 mg Cu/kg", "protocol": "Mice were immediately euthanized by cervical dislocation.\nLiver lysate (TBARS Assay via TCA Method, Cayman Chemical) and serum (BUN Assay, Invitrogen; ALT Assay, Cayman Chemical) samples were processed according to manufacturer instructions; sample concentration was selected based on initial dilution screening to fall within linear range of the standard curve. All samples were analyzed in triplicate."}, "SOD": {"test_system": "SOD", "assay": "SOD assay in high fat diet mice", "assay_type": "in vivo", "conditions": "vs untreated HFD mice"}, "labile Cu^+ pool": {"test_system": "labile Cu^+ pool", "assay": "In vivo bioluminescence imaging with CCL-1 / D-Luc, liver region", "parameters": "species or system FVB-luc^+ mice", "conditions": "24 hours after ionophore, 0.75 mg Cu/kg i.p.", "protocol": "A Xenogen IVIS Spectrum instrument (Caliper Life Sciences) was used for bioluminescence imaging in all animal experiments, and image analysis was performed using the Living Image software. The total photon flux for each animal was determined by drawing a region of interest around the liver and integrating photon flux over the total imaging period (area under the curve). We selected our liver region of interest based on comparing the bioluminescence data in vivo and ex vivo, as described in our previous studies with the CCL-1 probe.^27 The same region of interest around the liver was applied to analyzing both the CCL-1 and D-Luc data. The data plotted in FIG. 8A represents the ratio of CCL-1 integrated photon flux to basal D-luc integrated photon flux. Mice were anesthetized prior to injection and during imaging via inhalation of isoflurane. Isoflurane was purchased from Phoenix Pharmaceuticals, Inc. DMSO was purchased from Sigma-Aldrich, Dulbecco's phosphate buffered saline was purchased from Gibco, and medical-grade oxygen was purchased from Praxair.\nFVB-luc+ mice were given intraperitoneal (i.p.) injections of vehicle (50 μL 1:1 DMSO:DPBS), 3.46 mg/kg Cu(gtsm), or 7.26 mg/kg Gal-Cu(gtsm) under anesthesia with isoflurane. The ionophore concentrations were chosen to give an equivalent copper dose of 0.75 mg Cu/kg mouse at 0.6 mg Cu/mL vehicle. […]"}, "[5]": {"assay": "Stability in aqueous solutions at different pH (UV-vis)", "assay_type": "physicochemical", "conditions": "pH=3 to 8", "protocol": "All spectroscopic measurements were performed in 20 mM PBS, pH 7.4 unless otherwise indicated. Absorption spectra were acquired on a Varian Cary 50 spectrophotometer."}},
  "data": [
    {"molecule": "CNC1=N[N+]2=CC=[N+]3N=C(NCCOCCOCCOC4OC(CO)C(O)C(O)C4NC(C)=O)[S][Cu-2]23[S]1", "note": "(stereo not shown) [Gal-Cu(gtsm)]", "values": [
      {"measurement": "log P", "setting": "[1]", "result": "−1.03±0.10"},
      {"measurement": "CF4 fluorescence", "setting": "HepG2 cells [2]", "result": "increased fluorescence"},
      {"measurement": "ionophore toxicity (cell viability)", "setting": "HepG2 cells [3]", "result": "non-toxic"},
      {"measurement": "serum ALT levels compared to vehicle control", "setting": "[4]", "result": "virtually the same"},
      {"measurement": "SOD assay, anti-oxidant activity", "setting": "SOD", "result": "improved anti-oxidant activity"},
      {"measurement": "bioluminescent CCL-1/D-luc liver signal", "setting": "labile Cu^+ pool", "result": "returns to basal levels"},
      {"measurement": "stability of complex in aqueous buffers", "setting": "[5]", "result": "stable"}
    ]}
  ]
}
